From PubChem BioAssay (NCI)
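The concentration for 50% growth inhibition is given as GI50. The concentration for full growth arrest is given as TGI.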

Assays:
Assay in all cases: NCI anticancer screen, dose series, 384-well format
RXF 393 renal = test system: RXF 393 renal
NCI-H322M lung = test system: NCI-H322M lung
EKVX NSCLC = test system: EKVX NSCLC
BT-549 breast = test system: BT-549 breast
NCI-H460 NSCLC = test system: NCI-H460 NSCLC
IGROV1 ovarian = test system: IGROV1 ovarian
MOLT-4 leukemia = test system: MOLT-4 leukemia
NCI-H226 lung = test system: NCI-H226 lung
LOX IMVI melanoma = test system: LOX IMVI melanoma
OVCAR-5 ovarian = test system: OVCAR-5 ovarian
UO-31 renal = test system: UO-31 renal
CAKI-1 renal = test system: CAKI-1 renal
SR leukemia = test system: SR leukemia

## C=CC(=O)N1CCN(CCCn2c(=O)c(-c3c(Cl)c(OC)cc(OC)c3Cl)cc3cnc(NC)nc32)CC1
RXF 393 renal
  GI50: 0.665 µM
  TGI: 3.03 µM
NCI-H322M lung
  GI50: 5.16 µM
  TGI: > 39.6 µM
EKVX NSCLC
  GI50: 5.95 µM
  TGI: 19.6 µM
BT-549 breast
  GI50: 0.369 µM
  TGI: 3.1 µM
NCI-H460 NSCLC
  GI50: 2.51 µM
  TGI: 12.7 µM
IGROV1 ovarian
  GI50: 0.888 µM
  TGI: 7.23 µM
MOLT-4 leukemia
  GI50: 0.689 µM
  TGI: 1.96 µM
NCI-H226 lung
  TGI: 11.8 µM
LOX IMVI melanoma
  GI50: 2.63 µM
  TGI: 15.6 µM
OVCAR-5 ovarian
  GI50: 18.1 µM
  TGI: 46.3 µM
UO-31 renal
  GI50: 3.72 µM
  TGI: 15.9 µM
CAKI-1 renal
  GI50: 0.478 µM
  TGI: 3.49 µM
SR leukemia
  GI50: 1.29 µM
  TGI: 3.04 µM
